Active and inactive are the calls of the source.

Series [1] concerns HCT-116. The series is described as follows: Induction of apoptosis in human HCT116 cells assessed as accumulation of cells at S phase at 0.02 uM measured after 48 hrs by Annexin V-PI Flow cytometry assay (reference value: 31.25%). It is filed as functional. In general terms: Flow cytometry measures light scatter and fluorescence of single cells or particles in a stream.
Series [2] deals with HCT-116. The series is described as follows: In vivo antitumor effect in human HCT-116 cells xenografted mouse model assessed as inhibition of tumor cell proliferation by measuring Ki67 at 10 to 20 mg/kg, ip twice a day administered 21 consecutive days by TUNEL based assay. Type of series: functional, organism-based. To be noted: dose 10-20 mg/kg. (Xenograft models place foreign cells or tissue in a host animal.)

Series [3] can be described thus: Tmax in mouse at 20 mg/kg, ip measured upto 24 hrs. To be noted: in vivo. It is filed as ADME, organism-based.
In series [4] the test system is HCT-116. Kind of series: Reduction in GSH level in human HCT-116 cells assessed as reduced GSH content incubated for 12 hrs. Type of series: functional, cell-based. Conditions: dose 0.1-2 µM.
Series [5] has as its system HCT-116. Kind of series: Pro-oxidant effect in human HCT-116 cells assessed as induction of reactive oxygen level (ROS) measured after 12 hrs by 2',7'-dichloro-fluorescein diacetate (DCFH-DA) fluorescent probe based flow cytometry. It is filed as functional, cell-based. To be noted: dose 0.02-0.5 µM.
Series [6] can be described thus: Toxicity in mouse xenografted with human HCT-116 cells assessed as organ damage by measuring change in kidney at 10 mg/kg, ip twice a day administered 21 consecutive days. Type of series: organism-based. To be noted: in vivo.
Series [7] deals with HCT-116. The series is described as follows: Antimigratory activity against human HCT116 cells assessed as wound healing rate at 0.05 to 0.002 microM incubated for 24 hrs by wound healing assay (reference value: 62%). It is filed as functional. To be noted: dose 0.05-0.002 µM, at 0.002 to 0.05 µM.
For series [8], the system named is HCT-116. Kind of series: In vivo antitumor effect in human HCT-116 cells xenografted mouse model assessed as tumor growth inhibition at 20 mg/kg, ip twice a day administered 21 consecutive days. Type of series: functional. To be noted: read-out: TGI.
A short description of series [9]: Half life in mouse at 20 mg/kg, ip measured upto 24 hrs. Type of series: ADME, organism-based. To be noted: in vivo.
Series [10] concerns HCT-116. The series is described as follows: Pro-oxidant effect in human HCT-116 cells assessed as induction of reactive oxygen level (ROS) measured after 12 hrs by flow cytometry using the 2',7'-dichloro-fluorescein diacetate (DCFH-DA) fluorescent probe assay. Type of series: functional, cell-based. To be noted: dose 0.02-0.5 µM.
Series [11] concerns the target T1, DNA topoisomerase 1 (Homo sapiens) (UniProt P11387).
T1 sequence (whole entry): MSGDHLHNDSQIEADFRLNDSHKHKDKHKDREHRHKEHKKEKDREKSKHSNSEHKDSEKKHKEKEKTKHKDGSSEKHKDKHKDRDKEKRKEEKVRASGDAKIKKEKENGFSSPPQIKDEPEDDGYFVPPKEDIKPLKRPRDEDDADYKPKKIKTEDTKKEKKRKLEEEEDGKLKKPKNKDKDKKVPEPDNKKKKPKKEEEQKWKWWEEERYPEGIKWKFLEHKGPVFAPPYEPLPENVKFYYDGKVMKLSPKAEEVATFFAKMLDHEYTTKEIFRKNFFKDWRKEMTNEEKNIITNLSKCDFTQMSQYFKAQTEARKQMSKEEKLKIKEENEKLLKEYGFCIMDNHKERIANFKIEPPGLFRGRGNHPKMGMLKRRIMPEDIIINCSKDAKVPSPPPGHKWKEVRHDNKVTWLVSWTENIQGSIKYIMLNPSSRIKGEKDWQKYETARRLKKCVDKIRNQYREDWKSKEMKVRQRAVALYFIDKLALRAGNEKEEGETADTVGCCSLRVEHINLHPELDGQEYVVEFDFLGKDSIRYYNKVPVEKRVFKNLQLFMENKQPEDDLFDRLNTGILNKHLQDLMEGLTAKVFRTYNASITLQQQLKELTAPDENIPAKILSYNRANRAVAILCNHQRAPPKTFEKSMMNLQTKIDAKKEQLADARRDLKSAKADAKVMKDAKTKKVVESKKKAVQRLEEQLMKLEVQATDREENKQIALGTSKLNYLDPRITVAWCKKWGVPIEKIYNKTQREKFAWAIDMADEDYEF
The series is described as follows: Inhibition of DNA topoisomerase I (unknown origin) mediated supercoiled DNA relaxation activity at 100 uM by agarose gel electrophoresis analysis.

Series [12] concerns HCT-116. Kind of series: Induction of apoptosis in human HCT116 cells assessed as accumulation of cells at S phase at 0.1 uM measured after 48 hrs by Annexin V-PI Flow cytometry assay (reference value: 31.25%). It is filed as functional.
Series [13] can be described thus: Unbound drug concentration in mouse plasma at 2 uM. Type of series: ADME, cell-free.

For the compound `CN1c2ccc(F)cc2C(=O)N2CCc3c([nH]c4ccc(O[C@@H]5O[C@H](CO)[C@@H](O)[C@H](O)[C@H]5O)cc34)[C@H]21`, the Activity in [1] is 26.54%; in series [4], “Dose-Dependent Effect”; in [5] it was “Dose-Dependent Effect”; in series [6], “Non-Toxic”; in series [7], 1.1%; in series [10], “Dose-Dependent Effect”. Moreover, the Activity in series [12] is listed as 9.44%. Further, the outcome in series [2] was Active. Also, the Tmax (as a rule, the time from dosing to the highest level) in [3] was found to be 0.5 h. For the same compound, in series [8], the inhibition in vivo at 20 mg/kg came out at 82%. For the same compound, in series [9], the half-life (commonly the time needed for the level to fall by half in the phase considered) is 6.2 h. For the same compound, the inhibition entry in [11] was “Active”. Moreover, the “Cp(f)” value in [13] came to 85.1 ng/mL.
